Our source for the EC50 values is US12673954B2 (BRISTOL-MYERS SQUIBB COMPANY, priority 2021, dated 2026).

One may read the EC50 as the concentration needed to bring the measured effect to its halfway point.

The test system of experiment [1] is IRF pathway, THP1-Dual™ cells. Briefly: STING reporter assay in THP1-Dual cells, IRF pathway (Lucia luciferase, QUANTI-Luc). The experiment is classed as cell-based, human. The following applies: Homo sapiens, THP1-Dual, 20 h, THP1-Dual cells, 10% human plasma, 20 hours; Lucia luciferase; 100% activation = 100 μM cGAMP; read-out: IRF (EC50 μM). Summed up:
(§1)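 THP-1-derived dual-reporter cells treated with serially diluted compounds (final top concentration 100 μM) for 20 h at 37° C. NF-κB read as SEAP via QUANTI-Blue at OD620; IRF read as Lucia luminescence via QUANTI-Luc after 5 min. 100% activation set by 100 μM cGAMP, baseline by DMSO.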

Experiment [2] deals with NF-κB pathway, THP1-Dual™ cells. Briefly: STING reporter assay in THP1-Dual cells, NF-κB pathway (SEAP, QUANTI-Blue). Type of experiment: cell-based, human. Conditions: Homo sapiens, THP1-Dual, 20 h, THP1-Dual cells, 10% human plasma, 20 hours; SEAP; 100% activation = 100 μM cGAMP; read-out: NFkB (EC50 μM). In short, it runs like this: as §1
A general note: Reporter assays use an easily measured gene product as a stand-in for the process of interest.

`COC(=O)Cc1cc(Br)cc2cc(CNC(=O)c3cnn4cccnc34)oc12` [Example 84, Methyl 2-(5-bromo-2-((pyrazolo[1,5-a]pyrimidine-3-carboxamido)methyl)benzofuran-7-yl)acetate]: the EC50 in experiment [1] was 30 µM; in experiment [2], 27 µM.
Taken in the same sequence, the figures for `COC(=O)c1cc(C)cc2cc(Cn3ccc4ccncc4c3=O)oc12` [Example 85, Methyl 5-methyl-2-((1-oxo-2,7-naphthyridin-2(1H)-yl)methyl)benzofuran-7-carboxylate] were 3.5 µM and 3.6 µM.
For `COC(=O)c1cc(C)cc2cc(Cn3cnc4ccncc4c3=O)oc12` [Example 86, Methyl 5-methyl-2-((4-oxopyrido[4,3-d]pyrimidin-3(4H)-yl)methyl)benzofuran-7-carboxylate] the same measures were 1.7 µM and 1.8 µM.
For the molecule `COC(=O)c1cc(C)cc2cc(CN3CCc4ccncc4C3=O)oc12` [Example 87, Methyl 5-methyl-2-((1-oxo-3,4-dihydro-2,7-naphthyridin-2(1H)-yl)methyl)benzofuran-7-carboxylate], the EC50 in experiment [1] stood at 5.5 µM; in experiment [2] it was 5.8 µM.
For `COC(=O)c1cc(C)cc2cc(CN3Cc4ccncc4C3=O)oc12` [Example 88, Methyl 5-methyl-2-((3-oxo-1,3-dihydro-2H-pyrrolo[3,4-c]pyridin-2-yl)methyl)benzofuran-7-carboxylate] the same measures were 21 µM and 20 µM.
For the molecule `COC(=O)c1cc(C)cc2cc(CNC(=O)c3cnn4cccnc34)oc12` [Example 89, Methyl 5-methyl-2-((pyrazolo[1,5-a]pyrimidine-3-carboxamido)methyl)benzofuran-7-carboxylate], the EC50 was 0.21 µM in experiment [1] and 0.19 µM in experiment [2].
For `COC(=O)c1cc(C)cc2cc(CNC(=O)c3cnn4cc(C)cnc34)oc12` [Example 90, Methyl 5-methyl-2-((6-methylpyrazolo[1,5-a]pyrimidine-3-carboxamido)methyl)benzofuran-7-carboxylate] the same measures were 2.2 µM and 3 µM.
For `COC(=O)c1cc(C)cc2cc(CNC(=O)c3cncc4[nH]cnc34)oc12` [Example 91, Methyl 2-((3H-imidazo[4,5-c]pyridine-7-carboxamido)methyl)-5-methylbenzofuran-7-carboxylate] the same measures were 1.2 µM and 1.5 µM.
For `COC(=O)c1cc(C)cc2cc(CNC(=O)c3cncc4cccnc34)oc12` [Example 92, methyl 2-((1,6-naphthyridine-8-carboxamido)methyl)-5-methylbenzofuran-7-carboxylate] the same measures were 0.8 µM and 0.81 µM.
For the molecule `COC(=O)c1cc(C)cc2cc(CNC(=O)c3c(N)nn4cccnc34)oc12` [Example 93, Methyl 2-((2-aminopyrazolo[1,5-a]pyrimidine-3-carboxamido)methyl)-5-methylbenzofuran-7-carboxylate], the EC50 in experiment [1] was determined as 3.7 µM; in experiment [2], 6 µM.
For `COC(=O)c1cc(C)cc2cc(CNC(=O)c3cncnc3OC)oc12` [Example 94, Methyl 2-((4-methoxypyrimidine-5-carboxamido)methyl)-5-methylbenzofuran-7-carboxylate] the same measures were 1.8 µM and 2.1 µM.
For `CCOc1ncncc1C(=O)NCc1cc2cc(C)cc(C(=O)OC)c2o1` [Example 95, Methyl 2-((4-ethoxypyrimidine-5-carboxamido)methyl)-5-methylbenzofuran-7-carboxylate] the same measures were 13 µM and 16 µM.
For `COC(=O)Cc1cc(C)cc2cc(CNC(=O)c3cnn4cccnc34)oc12` [Example 98, Methyl 2-(5-methyl-2-((pyrazolo[1,5-a]pyrimidine-3-carboxamido)methyl)benzofuran-7-yl)acetate], the values for the half-maximal effective concentration (EC50) in experiment [1] and in experiment [2] were 11 µM and 10 µM, respectively.
Taken in the same sequence, the figures for `COC(=O)c1cc(C2CC2)cc2cc(CNC(=O)c3cnn4cccnc34)oc12` [Example 99, Methyl 5-cyclopropyl-2-((pyrazolo[1,5-a]pyrimidine-3-carboxamido)methyl)benzofuran-7-carboxylate] were 17 µM and 12 µM.
